Measurements: article PMC8042770, “Odorant Receptors for Detecting Flowering Plant Cues Are Functionally Conserved across Moths and Butterflies” (Molecular Biology and Evolution, 2020)
pEC50: −log10 of the molar value. Like-named read-outs stand apart in the source and are kept apart here.

Key:
Format in all cases: cell-based
HarmOR52 = HarmOR52 (Helicoverpa armigera, UniProt A0A7T3KAH2); assay: Xenopus oocyte two-electrode voltage clamp, HarmOR52 + Orco
Procedure: (§1) In order to expand our analysis on the response properties of HarmORs, we conducted dose–response analyses for the 28 functional HarmORs. […] Six HarmORs (OR3, 22, 48, 50, 56, and 66) could not be activated by any ligand at 10^−5 M. For the other 22 HarmORs, dose–response curves were generated and EC50 values of their major ligands were calculated (fig. 2A and supplementary table S2, Supplementary Material online). The HarmOR repertoire was highly efficient in terpene detection, since the lowest EC50 values were obtained for such compounds. Many of these terpenes have been proposed to be defensive chemicals of plants. […] DMNT is also one of the oviposition deterring compounds found in larval frass of some Lepidoptera species such as S. littoralis ([Anderson et al. 1993]).
(§2) Functional characterization of individual ORs was performed by heterologous expression in Xenopus oocytes combined with a two-electrode voltage-clamp system ([Wang et al. 2010]). Briefly, the full-length gene of each OR and Orco were subcloned into the eukaryotic expression vector pT7TS. cRNAs were generated from linearized expression vectors using the mMESSAGE mMACHINE T7 kit (Ambion, Austin, TX). Then, the cRNA mixture of ORx and Orco (27.6 ng each) was injected (Nanoliter 2010, WPI Inc., Sarasota, FL) into oocytes (stage V–VII). The respective Orcos of different species were used for functional studies of OR42 orthologs except for the four butterfly species (V. tameamea, P. xuthus, D. plexippus, and P. rapae), in which we used the Orco from P. xuthus. After incubation in nutrient solution at 18 °C for 3–5 days, the response profile of each oocyte to multiple plant odorants was recorded via a two-electrode voltage clamp (OC-725C oocyte clamp, Warner Instruments, Hamden, CT) at a holding potential of −80 mV. Data were acquired by using a Digidata 1440 A and were analyzed by pCLAMP 10.2 software (Axon Instruments Inc., Union City, CA).
(§3) Stock solutions of each odorant were prepared at 1 M using DMSO as a solvent, and each odorant was diluted in 1× Ringer’s solution to the indicated concentrations for electrophysiological recording. For functional screening of each HarmOR, a panel of 67 odorants belonging to three types of chemical classes: terpenes, aromatics, and aliphatics (short-chain fatty acid) were used (supplementary table S1, Supplementary Material online). For functional studies of OR42 orthologs from different species, six odorants including PAA, benzaldehyde, (E)-2-hexen-1-al, cinnamaldehyde, 2-phenylethanol, and heptanal were used.

HarmOR31 = HarmOR31 (Helicoverpa armigera, UniProt A0A7T3N2E9); assay: Xenopus oocyte two-electrode voltage clamp, HarmOR31 + Orco; details: HarmOR31; dose response in oocytes; unit M; read-out: EC50
Chain of HarmOR31 (A0A7T3N2E9 entry or part of it): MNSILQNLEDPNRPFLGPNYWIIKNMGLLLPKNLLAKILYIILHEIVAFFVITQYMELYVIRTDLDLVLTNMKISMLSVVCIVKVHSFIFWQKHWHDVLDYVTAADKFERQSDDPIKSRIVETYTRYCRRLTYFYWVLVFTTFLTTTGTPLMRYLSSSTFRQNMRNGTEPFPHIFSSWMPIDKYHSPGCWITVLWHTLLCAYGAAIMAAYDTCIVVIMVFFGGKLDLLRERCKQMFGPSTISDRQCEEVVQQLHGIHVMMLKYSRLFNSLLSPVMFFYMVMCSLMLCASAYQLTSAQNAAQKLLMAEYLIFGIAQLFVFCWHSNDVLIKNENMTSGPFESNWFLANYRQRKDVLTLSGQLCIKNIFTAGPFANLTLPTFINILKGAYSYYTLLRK
Excerpt: (§4) In order to expand our analysis on the response properties of HarmORs, we conducted dose–response analyses for the 28 functional HarmORs. […] Many of these terpenes have been proposed to be defensive chemicals of plants.
(§5) Briefly, the full-length gene of each OR and Orco were subcloned into the eukaryotic expression vector pT7TS. cRNAs were generated from linearized expression vectors using the mMESSAGE mMACHINE T7 kit (Ambion, Austin, TX). […] The respective Orcos of different species were used for functional studies of OR42 orthologs except for the four butterfly species (V. tameamea, P. xuthus, D. plexippus, and P. rapae), in which we used the Orco from P. xuthus.
as §3

HarmOR12 = HarmOR12 (Helicoverpa armigera, UniProt A0A172QGF5); assay: Xenopus oocyte two-electrode voltage clamp, HarmOR12 + Orco
Chain of HarmOR12 (A0A172QGF5 entry or part of it): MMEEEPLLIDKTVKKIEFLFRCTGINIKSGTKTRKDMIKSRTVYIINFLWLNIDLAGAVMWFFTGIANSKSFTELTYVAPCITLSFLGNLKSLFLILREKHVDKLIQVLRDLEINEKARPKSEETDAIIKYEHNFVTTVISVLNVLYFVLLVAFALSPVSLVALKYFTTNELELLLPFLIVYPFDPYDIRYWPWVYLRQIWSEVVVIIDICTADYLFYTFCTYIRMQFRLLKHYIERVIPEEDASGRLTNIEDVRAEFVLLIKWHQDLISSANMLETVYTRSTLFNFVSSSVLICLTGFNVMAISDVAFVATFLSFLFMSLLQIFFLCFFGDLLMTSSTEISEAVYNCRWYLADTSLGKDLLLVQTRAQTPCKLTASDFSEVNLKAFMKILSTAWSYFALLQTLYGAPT
Excerpt: as §4, §5, §3

HarmOR40 = molecular target: T1, HarmOR40 (Helicoverpa armigera, UniProt A0A7T3KBF4); assay: Xenopus oocyte two-electrode voltage clamp, HarmOR40 + Orco
T1 sequence (A0A7T3KBF4 1-401): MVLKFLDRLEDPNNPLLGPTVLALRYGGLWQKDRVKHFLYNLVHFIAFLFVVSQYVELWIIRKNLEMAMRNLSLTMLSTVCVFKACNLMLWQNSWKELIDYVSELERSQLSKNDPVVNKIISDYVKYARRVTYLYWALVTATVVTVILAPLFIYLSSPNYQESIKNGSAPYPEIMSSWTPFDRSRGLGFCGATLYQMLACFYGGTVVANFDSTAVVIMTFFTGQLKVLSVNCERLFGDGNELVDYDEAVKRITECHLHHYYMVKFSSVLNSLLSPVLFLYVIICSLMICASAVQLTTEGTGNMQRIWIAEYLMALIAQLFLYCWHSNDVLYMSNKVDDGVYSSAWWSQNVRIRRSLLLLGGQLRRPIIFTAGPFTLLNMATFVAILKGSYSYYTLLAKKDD
Procedure: as §1, §2, §3

HarmOR36 = HarmOR36 (Helicoverpa armigera, UniProt A0A7T3N0K7); assay: Xenopus oocyte two-electrode voltage clamp, HarmOR36 + Orco; details: HarmOR36; dose response in oocytes; unit M; read-out: EC50
Chain of HarmOR36 (A0A7T3N0K7 entry or part of it): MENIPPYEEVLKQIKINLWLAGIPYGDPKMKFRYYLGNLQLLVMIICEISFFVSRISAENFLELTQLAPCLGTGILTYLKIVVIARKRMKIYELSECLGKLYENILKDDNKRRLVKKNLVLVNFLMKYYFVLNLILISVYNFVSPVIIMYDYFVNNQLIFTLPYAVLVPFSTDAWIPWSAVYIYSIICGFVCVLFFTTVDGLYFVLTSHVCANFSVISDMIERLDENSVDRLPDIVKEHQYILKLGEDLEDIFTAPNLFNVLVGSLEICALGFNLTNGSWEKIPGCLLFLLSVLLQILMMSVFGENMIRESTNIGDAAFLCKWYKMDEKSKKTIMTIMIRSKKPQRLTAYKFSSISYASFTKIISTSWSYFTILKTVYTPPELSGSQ
Procedure: as §1, §2, §3

HarmOR59 = HarmOR59 (Helicoverpa armigera, UniProt A0A7T3KAU6); assay: Xenopus oocyte two-electrode voltage clamp, HarmOR59 + Orco
Chain of HarmOR59 (A0A7T3KAU6 entry or part of it): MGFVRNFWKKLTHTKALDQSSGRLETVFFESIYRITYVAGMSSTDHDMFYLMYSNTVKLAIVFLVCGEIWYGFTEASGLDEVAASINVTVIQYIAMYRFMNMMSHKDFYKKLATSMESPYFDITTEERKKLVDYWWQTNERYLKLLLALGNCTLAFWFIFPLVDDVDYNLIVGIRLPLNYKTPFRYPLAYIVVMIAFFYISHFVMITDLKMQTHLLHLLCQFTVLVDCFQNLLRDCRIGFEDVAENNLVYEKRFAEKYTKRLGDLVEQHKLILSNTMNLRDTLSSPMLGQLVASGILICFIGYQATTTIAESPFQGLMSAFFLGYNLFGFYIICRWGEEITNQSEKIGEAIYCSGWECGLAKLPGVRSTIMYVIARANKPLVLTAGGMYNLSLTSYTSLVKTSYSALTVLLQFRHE
Procedure: as §1, §2, §3

HarmOR23 = HarmOR23 (Helicoverpa armigera, UniProt A0A7T3KAE3); assay: Xenopus oocyte two-electrode voltage clamp, HarmOR23 + Orco; details: dose response in oocytes, unit M printed in text only
Chain of HarmOR23 (A0A7T3KAE3 entry or part of it): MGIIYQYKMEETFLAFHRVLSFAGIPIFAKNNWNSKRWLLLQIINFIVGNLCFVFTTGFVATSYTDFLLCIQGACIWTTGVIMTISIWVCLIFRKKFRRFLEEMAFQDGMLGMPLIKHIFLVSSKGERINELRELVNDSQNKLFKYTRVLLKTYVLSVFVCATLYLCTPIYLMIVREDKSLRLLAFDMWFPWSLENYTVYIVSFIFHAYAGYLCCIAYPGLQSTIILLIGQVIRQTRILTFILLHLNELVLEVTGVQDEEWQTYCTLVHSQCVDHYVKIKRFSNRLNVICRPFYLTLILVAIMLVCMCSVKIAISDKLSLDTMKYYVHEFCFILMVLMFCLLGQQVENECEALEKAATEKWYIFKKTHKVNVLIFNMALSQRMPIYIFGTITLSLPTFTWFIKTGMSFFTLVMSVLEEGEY
Procedure: as §1
as §2, with “CA). […]” for “CA).”

HarmOR27 = molecular target: T2, HarmOR27 (Helicoverpa armigera, UniProt A0A7T3KAG1); assay: Xenopus oocyte two-electrode voltage clamp, HarmOR27 + Orco; details: HarmOR27; dose response in oocytes; unit M; read-out: EC50
T2 sequence (A0A7T3KAG1 1-426): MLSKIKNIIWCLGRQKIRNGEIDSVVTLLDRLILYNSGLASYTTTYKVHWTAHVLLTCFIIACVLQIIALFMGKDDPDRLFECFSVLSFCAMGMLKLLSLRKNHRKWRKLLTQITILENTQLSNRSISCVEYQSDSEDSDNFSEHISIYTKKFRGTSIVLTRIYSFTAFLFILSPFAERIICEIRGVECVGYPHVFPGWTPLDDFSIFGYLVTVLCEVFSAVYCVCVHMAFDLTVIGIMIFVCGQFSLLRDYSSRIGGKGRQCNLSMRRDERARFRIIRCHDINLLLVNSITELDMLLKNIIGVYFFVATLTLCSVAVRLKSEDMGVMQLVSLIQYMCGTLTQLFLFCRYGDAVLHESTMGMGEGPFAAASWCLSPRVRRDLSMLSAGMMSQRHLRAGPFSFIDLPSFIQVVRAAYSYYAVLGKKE
Procedure: as §1, §2, §3

Chain of HarmOR52 (A0A7T3KAH2 entry or part of it): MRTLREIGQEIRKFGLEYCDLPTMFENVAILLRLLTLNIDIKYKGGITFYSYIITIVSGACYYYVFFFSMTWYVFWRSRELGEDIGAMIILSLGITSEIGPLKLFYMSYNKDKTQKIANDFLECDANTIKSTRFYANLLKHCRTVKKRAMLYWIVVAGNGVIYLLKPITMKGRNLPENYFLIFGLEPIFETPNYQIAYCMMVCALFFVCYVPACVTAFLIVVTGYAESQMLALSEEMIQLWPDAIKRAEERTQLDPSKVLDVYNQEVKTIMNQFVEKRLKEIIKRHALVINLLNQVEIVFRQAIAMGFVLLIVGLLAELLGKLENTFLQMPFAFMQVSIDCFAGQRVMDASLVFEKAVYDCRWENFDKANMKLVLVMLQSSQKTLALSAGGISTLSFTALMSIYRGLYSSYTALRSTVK

Compound `CCC/C=C\CO` [(Z)-2-Hexen-1-ol] has a pEC50 (HarmOR52) of 4.78.
Work on `CC/C=C\CCOC(C)=O` [(Z)-3-Hexenyl acetate] yielded a pEC50 (HarmOR31) of 5.12.
With `CCCCCC1CCCC(=O)O1` (centres unmarked) [δ-Decanolactone] the pEC50 (HarmOR31) was 5.09.
`CC(C)=CCC/C(C)=C/CO` [Geraniol] gave a pEC50 (HarmOR12) of 4.56 and a pEC50 (HarmOR40) of 4.56.
Work on `OCc1ccccc1` [Benzyl alcohol] yielded a pEC50 (HarmOR52) of 5.16.
`CCC(C)(O)CCCC(C)C` (centres unmarked) [3,7-Dimethyl-3-octanol] was tested, and the pEC50 (HarmOR36) was 5.54.
`CCC/C=C/CO` [(E)-2-Hexen-1-ol] was tested, and the pEC50 (HarmOR59) was 2.92 and the pEC50 (HarmOR52) was 4.62.
With Farnesene the pEC50 (HarmOR23) was 5.32, the pEC50 (HarmOR23; listed as farnesene) was over 5.00 and the pEC50 (HarmOR40; HarmOR40, dose response in oocytes, unit M printed in text only, listed as farnesene, read-out: EC50) was over 5.00. It also gave a pEC50 (HarmOR40; HarmOR40, dose response in oocytes, unit M printed in text only, read-out: EC50) of 5.10.
With `C=C[C@](C)(O)CCC=C(C)C` [(-)-Linalool] the pEC50 (HarmOR12; HarmOR12, dose response in oocytes, unit M, read-out: EC50) was 4.86 and the pEC50 (HarmOR36) was 5.94.
With `CC/C=C\CC1=C(C)CCC1=O` [cis-Jasmone] the pEC50 (HarmOR27) was 4.10.
(±)-Citronellal gave a pEC50 (HarmOR27) of 3.48.
